Assay results reported in article PMC3062156, “Biochanin A, a Phytoestrogenic Isoflavone with Selective Inhibition of Phosphodiesterase 4, Suppresses Ovalbumin-Induced Airway Hyperresponsiveness” (Evidence-based Complementary and Alternative Medicine : eCAM, 2011).

Biological target: T1, phosphodiesterase 4 (PDE4), high-affinity rolipram binding sites (PDE4H)
T1 construct: native PDE4 in particulate (cell membrane) portion of guinea pig whole brain; subtype not specified
Assay: [3H]-rolipram radioligand displacement on guinea pig brain membranes; weak, […] displacement at […]
Parameters: species or system Cavia porcellus
Conditions: read-out: EC50 (the source's name)

IC50: > 300 µM
SMILES: COc1ccc(-c2coc3cc(O)cc(O)c3c2=O)cc1 [Biochanin A]
